The source of these data is US12157732B2, “eIF4E inhibitors and uses thereof” (PIC Therapeutics, Inc., priority 2021, dated 2024).

The assay addresses T1, Human eIF4E (aa 28-217) / biotin labeled 4G2 peptide (Homo sapiens, UniProt P06730).
T1 construct: Human eIF4E (aa 28-217) with a C-terminal His-tag; made in house
Put plainly: Human eIF4E/4G2 binding assay (TR-FRET). The conditions noted are these: TR-FRET eIF4E/4G2 peptide binding; 4 hours preincubation with eIF4E at room temperature. Here is the method: Example 3. Compound Testing in Human eIF4E/4G2 Binding Assay
Human eIF4E (aa 28-217) with a C-terminal His-tag was expressed in E. coli in inclusion bodies. The protein was solubilized with 8 M urea and purified under denaturing conditions using nickel-charged HisTrap HP columns (GE Healthcare). The purified protein was then refolded by diluting in 20 mM Hepes pH 7.0, 0.5 M NaCl, 1 mM DTT, 1 mM EDTA, 0.5 M arginine plus 6 M urea, and then dialyzing overnight into the same buffer without the urea. The protein was further dialyzed into 20 mM Hepes, pH 6.5, 50 mM NaCl, 1 mM EDTA, 1 mM DTT, and concentrated using Hitrap SP sepharose FF columns (GE Healthcare). The concentrated protein was dialyzed into 20 mM Hepes, pH 7.0, 0.5M NaCl, 5 mM DTT and 10% glycerol, and stored at −80° C. until use.
Test compounds (3.43 mM stock in DMSO) were diluted 2-fold in series in DMSO (10 concentration points). Compound solutions (1.2 μl/well) were added into black 384-well polypropylene microplates (Matrix, Thermal Scientific). Twenty-two microliters per well of Assay Buffer (50 mM NaPi, pH 6.5, 50 mM KCl, 1 mM DTT and 0.5 mg/ml gamma globulin) and eight microliters per well of 82.5 nM purified eIF4E in Assay Buffer were added. The samples were incubated at room temperature (20-23° C.) for 4 hours. Biotin labeled 4G2 peptide (Ac-Lys-Gln-Tyr-Asp-Arg-Glu-Phe-Leu-Leu-Asp-Phe-Gln-Phe-Met-Pro-Lys(Aha-Bio)-NH2, 1.75 μM stock in DMSO) was diluted to 0.14 μM in Assay Buffer (without DTT) and 5 μl/well was added. The samples were incubated at room temperature for 20 min. Five microliters per well of 6.4 nM Eu-streptavidin (Eu-SA, Perkin Elmer) and 80 nM Allophycocyanin (APC)-anti His antibody (Columbia Biosciences) in Assay Buffer (without DTT) were then added and the samples were incubated at room temperature for 20 min.
Assay signals were monitored by reading excitation at 340 nm and emission fluorescence at 615 nm and 665 nm on an Envision reader (Perkin Elmer). Normalized TR-FRET (time-resolved fluorescence resonance energy transfer) assay signal (Rn) was calculated by the formula: Rn=[(A−Ba−C×D)/(D−Bd)]×(Dc−Bd) Where A is the fluorescence intensity of the sample at 665 nm, D is the fluorescence intensity of the sample at 615 nm, Ba and Bd are plate backgrounds at 665 nm and 615 nm, respectively, Dc is the fluorescence intensity of 0.78 nM Eu-SA in the assay buffer at 615 nm The cross-talk factor (C) is determined by the following formula: C=(Ac−Ba)/(Dc−Bd) Where Ac is the fluorescence intensity of 0.78 nM Eu-SA in the assay buffer at 665 nm.
IC50 values were calculated using xLFit program (IDBS). Table 3 below lists IC50 of some compounds, wherein A represents IC50<0.5 μM; B represents 500 nM<IC50<1 μM; and C represents IC50>1 μM.
A general note: Time-resolved FRET reads energy transfer from a long-lived donor to a nearby acceptor.

Molecules are shown by their SMILES. pIC50: −log10 of the molar value.

T1 sequence (P06730 28-217): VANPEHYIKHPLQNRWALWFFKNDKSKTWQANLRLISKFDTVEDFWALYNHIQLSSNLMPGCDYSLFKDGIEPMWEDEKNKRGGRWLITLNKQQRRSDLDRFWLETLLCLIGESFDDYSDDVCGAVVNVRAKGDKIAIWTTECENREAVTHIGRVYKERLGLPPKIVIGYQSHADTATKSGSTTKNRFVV

For orientation: pIC50 means −log10 of the IC50, conventionally taken in molar units. The low end stands for a high IC50, the high end for a low IC50. `CC(C)c1nc(Nc2ncc(C(F)(F)F)cc2C(=O)O)sc1-c1ccc(Cl)c(Cl)c1` [I-1, 2-(5-(3,4-Dichlorophenyl)-4-Isopropylthiazol-2-Ylamino)-5-(trifluoromethyl)nicotinic acid] had a pIC50 greater than 6.30.
Next, `CC(C)c1nc(Nc2ncc(-c3cccs3)cc2C(=O)O)sc1-c1ccc(Cl)c(Cl)c1` [I-2, 2-(5-(3,4-Dichlorophenyl)-4-Isopropylthiazol-2-Ylamino)-5-(Thiophen-2-yl)nicotinic acid]: greater than 6.30; `CC(C)CCc1nc(Nc2ncc(-c3cccs3)cc2C(=O)O)sc1-c1ccc(Cl)c(Cl)c1` [I-3]: greater than 6.30.
For `CC(C)CCc1nc(Nc2ncc(C(F)(F)F)cc2C(=O)O)sc1-c1ccc(Cl)c(Cl)c1` [I-4] the value was greater than 6.30.
For `CC(C)CCc1nc(Nc2ccsc2C(=O)O)sc1-c1ccc(Cl)c(Cl)c1` [I-5] the value was greater than 6.30.
Molecule `CC(C)CCc1nc(Nc2cc(-c3ccccc3)sc2C(=O)O)sc1-c1ccc(Cl)c(Cl)c1` [I-6] showed a pIC50 greater than 6.30.
For `CC(C)CCc1nc(Nc2ncccc2C(=O)O)sc1-c1ccc(Cl)c(Cl)c1` [I-7] the value was greater than 6.30; for `CC(C)CCc1nc(Nc2ncc(-c3cccs3)cc2C(=O)O)sc1-c1ccccc1` [I-8], greater than 6.30; for `CC(C)CCc1nc(Nc2ncc(-c3cccs3)cc2C(=O)O)sc1-c1ccc(S(C)(=O)=O)cc1` [I-9], 6.00 to 6.30.
For `CC(C)CCc1nc(Nc2ncc(C(F)(F)F)cc2C(=O)O)sc1-c1ccc(S(C)(=O)=O)cc1` [I-10] the value was 6.00 to 6.30; for `CC(C)CCc1nc(Nc2cc(C3CCCC3)sc2C(=O)O)sc1-c1ccc(Cl)c(Cl)c1` [I-11], greater than 6.30.
Next, `CC(C)CCc1nc(Nc2cc(C3CCCC3)sc2C(=O)O)sc1-c1ccc(Oc2ccccc2)cc1` [I-12]: greater than 6.30.
`CC(C)CCc1nc(Nc2cc(C3CCCC3)sc2C(=O)O)sc1-c1ccc(-n2ccccc2=O)cc1` [I-13] gave a pIC50 greater than 6.30.
For `CC(C)CCc1nc(Nc2ncc(-c3cccs3)cc2C(=O)O)sc1-c1ccc(Oc2ccccc2)cc1` [I-14] the value was greater than 6.30; for `CC(C)CCc1nc(Nc2ncc(C(F)(F)F)cc2C(=O)O)sc1-c1ccc(-c2ccccn2)cc1` [I-15], greater than 6.30.
For `CC(C)CCc1nc(Nc2ncc(C(F)(F)F)cc2C(=O)O)sc1-c1ccc(N2CCOCC2)cc1` [I-16, 2-(4-Isopentyl-5-(4-Morpholinophenyl)Thiazol-2-Ylamino)-5-(trifluoromethyl)nicotinic acid] the value was less than 6.00; for `CC(C)CCc1nc(Nc2ncc(-c3cccs3)cc2C(=O)O)sc1-c1ccc(OC(F)(F)F)cc1` [I-17], greater than 6.30; for `CC(C)CCc1nc(Nc2cc(C3CCCC3)sc2C(=O)O)sc1-c1ccc(OC(F)(F)F)cc1` [I-18], greater than 6.30.
In turn, `CC(C)c1nc(Nc2ncc(C(F)(F)F)cc2C(=O)O)sc1-c1ccc2ccccc2c1` [I-19] had a negative logarithm of the IC50 (pIC50) of 6.00 to 6.30.
Next, `CC(C)c1nc(Nc2ncc(C(F)(F)F)cc2C(=O)O)sc1-c1cccc2ccccc12` [I-20]: 6.00 to 6.30; `CC(C)c1nc(Nc2ncc(C(F)(F)F)cc2C(=O)O)sc1-c1cccs1` [I-21]: 6.00 to 6.30; `CC(C)c1nc(Nc2ncc(C(F)(F)F)cc2C(=O)O)sc1-c1ccsc1` [I-22]: 6.00 to 6.30.
Next, `CC(C)c1nc(Nc2ncc(C(F)(F)F)cc2C(=O)O)sc1C1=CCCCC1` [I-23]: 6.00 to 6.30.
Molecule `CC(C)c1nc(Nc2ncc(C(F)(F)F)cc2C(=O)O)sc1-c1ccc(-c2cccs2)cc1` [I-24, 2-(4-Isopropyl-5-(4-(Thiophen-2-Yl)Phenyl)Thiazol-2-Ylamino)-5-(trifluoromethyl)nicotinic acid] gave a pIC50 greater than 6.30.
Next, `CC(C)c1nc(Nc2ncc(C(F)(F)F)cc2C(=O)O)sc1-c1ccc(C(F)(F)F)cc1` [I-25]: 6.00 to 6.30; `CC(C)c1nc(Nc2ncc(-c3ccccc3)cc2C(=O)O)sc1C1=CCCCC1` [I-27, 2-(5-cyclohexenyl-4-isopropylthiazol-2-ylamino)-5-phenylnicotinic acid]: 6.00 to 6.30.
For `CC(C)Cc1nc(Nc2ncc(C(F)(F)F)cc2C(=O)O)sc1-c1ccc2ccccc2c1` [I-30] the value was greater than 6.30; for `CC(C)c1nc(Nc2ncc(C(F)(F)F)cc2C(=O)O)sc1-c1ccc(Cl)cc1Cl` [I-31, 2-(5-(2,4-dichlorophenyl)-4-isopropylthiazol-2-ylamino)-5-(trifluoromethyl)nicotinic acid], 6.00 to 6.30; for `CC(C)c1nc(Nc2ncc(C(F)(F)F)cc2C(=O)O)sc1-c1csc2ccccc12` [I-32, 2-(5-(benzo[b]thiophen-3-yl)-4-isopropylthiazol-2-ylamino)-5-(trifluoromethyl)nicotinic acid], 6.00 to 6.30.
Next, `CC(C)c1nc(Nc2ncc(C(F)(F)F)cc2C(=O)O)sc1-c1ccc(C(F)(F)F)cc1Cl` [I-33]: 6.00 to 6.30; `CC(C)c1ccc(-c2sc(Nc3ncc(C(F)(F)F)cc3C(=O)O)nc2C(C)C)cc1` [I-34]: 6.00 to 6.30; `CC(C)c1nc(Nc2ncc(C(F)(F)F)cc2C(=O)O)sc1-c1ccc(C(C)(C)C)cc1` [I-35]: greater than 6.30.
On to `CC(C)c1nc(Nc2ncc(C(F)(F)F)cc2C(=O)O)sc1-c1ccc(F)cc1F` [I-36], for which the negative-log IC50 (pIC50) was 6.00 to 6.30.
Next, `CC(C)c1nc(Nc2ncc(C(F)(F)F)cc2C(=O)O)sc1-c1ccc(Cl)cc1F` [I-37, 2-(5-(4-chloro-2-fluorophenyl)-4-isopropylthiazol-2-ylamino)-5-(trifluoromethyl)nicotinic acid]: 6.00 to 6.30.
For `CC(C)c1nc(Nc2ncc(C(F)(F)F)cc2C(=O)O)sc1-c1ccc(-c2ccccc2)cc1` [I-38] the value was greater than 6.30; for `CC(C)c1nc(Nc2ncc(C(F)(F)F)cc2C(=O)O)sc1-c1ccc(C(F)(F)F)c(F)c1` [I-39], greater than 6.30; for `COc1cc(Cl)ccc1-c1sc(Nc2ncc(C(F)(F)F)cc2C(=O)O)nc1C(C)C` [I-40], 6.00 to 6.30.
Next, `COc1ccc(-c2sc(Nc3ncc(C(F)(F)F)cc3C(=O)O)nc2C(C)C)cc1` [I-41]: 6.00 to 6.30; `COc1ccc(-c2sc(Nc3ncc(C(F)(F)F)cc3C(=O)O)nc2C(C)C)cc1OC` [I-42]: less than 6.00; `COc1ccc(-c2sc(Nc3ncc(C(F)(F)F)cc3C(=O)O)nc2C(C)C)cc1F` [I-43]: 6.00 to 6.30.
Turning to `CC(C)c1nc(Nc2ncc(C(F)(F)F)cc2C(=O)O)sc1-c1ccc(OC(F)F)cc1` [I-44], the pIC50 is 6.00 to 6.30.
Next, `CC(C)c1nc(Nc2ncc(C(F)(F)F)cc2C(=O)O)sc1-c1ccc(OCc2ccccc2)cc1` [I-45]: greater than 6.30.
For `CC(C)c1nc(Nc2ncc(C(F)(F)F)cc2C(=O)O)sc1-c1ccccn1` [I-46, 2-(4-isopropyl-5-(pyridin-2-yl)thiazol-2-ylamino)-5-(trifluoromethyl)nicotinic acid], the pIC50 was less than 6.00.
Next, `COc1ccc(-c2sc(Nc3ncc(C(F)(F)F)cc3C(=O)O)nc2C(C)C)c(OC)c1` [I-47]: less than 6.00; `CC(C)c1nc(Nc2ncc(C(F)(F)F)cc2C(=O)O)sc1-c1ccc(Cl)s1` [I-48]: 6.00 to 6.30.
For `CC(C)c1nc(Nc2ncc(C(F)(F)F)cc2C(=O)O)sc1-c1ccc(-c2ccccc2)s1` [I-49], the pIC50 was greater than 6.30.
Turning to `COc1ccc(-c2sc(Nc3ncc(-c4cccs4)cc3C(=O)O)nc2C(C)C)cc1Cl` [I-50], the pIC50 was 6.00 to 6.30.
`COc1ccc(-c2sc(Nc3ncc(C(F)(F)F)cc3C(=O)O)nc2C(C)C)cc1Cl` [I-51] had a pIC50 of 6.00 to 6.30.
For `COc1ccc(-c2sc(Nc3ncc(-c4cccs4)cc3C(=O)O)nc2C2CC2)cc1Cl` [I-52, 2-((5-(3-chloro-4-methoxyphenyl)-4-cyclopropylthiazol-2-yl)amino)-5-(thiophen-2-yl)nicotinic acid] the value was greater than 6.30; for `COc1ccc(-c2sc(Nc3ncc(-c4cccs4)cc3C(=O)O)nc2C)cc1Cl` [I-53], 6.00 to 6.30.
